Source: doi:10.1101/692707v2 (biorxiv, 2020)
One block for each molecule: values may come before it.

Assays:
Type in all cases: binding
YdiU^475 [1] = biological target: T1, YdiU^475 (Escherichia coli, UniProt P77649); test: SPR
T1 sequence (P77649 1-475): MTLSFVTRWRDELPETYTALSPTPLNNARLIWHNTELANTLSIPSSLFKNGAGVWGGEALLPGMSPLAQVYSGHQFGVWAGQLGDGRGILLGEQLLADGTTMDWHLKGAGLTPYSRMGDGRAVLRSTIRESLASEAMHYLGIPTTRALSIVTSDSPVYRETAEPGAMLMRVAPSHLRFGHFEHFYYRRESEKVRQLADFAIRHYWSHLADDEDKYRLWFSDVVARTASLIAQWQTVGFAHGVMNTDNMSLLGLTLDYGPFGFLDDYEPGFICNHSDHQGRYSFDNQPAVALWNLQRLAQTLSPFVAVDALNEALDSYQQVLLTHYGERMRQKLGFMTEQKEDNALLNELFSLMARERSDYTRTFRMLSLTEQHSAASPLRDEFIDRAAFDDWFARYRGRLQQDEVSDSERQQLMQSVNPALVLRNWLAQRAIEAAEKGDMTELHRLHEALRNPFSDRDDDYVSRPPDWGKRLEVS

YdiU^475 [2] = biological target: T1, YdiU^475; test: X-ray crystal structure; settings: Mg2+, active site
YdiU^475 [3] = biological target: T1, YdiU^475; test: DSF on Uncle platform; settings: 2 mM Mn2+, Tm of complex, not a shift, apo 38.3 °C (with 5 mM EDTA)

Tm1 (YdiU^475 [3]; 1 mM ATP): 50.3 °C
Compound: Nc1ncnc2c1ncn2[C@@H]1O[C@H](COP(=O)(O)OP(=O)(O)OP(=O)(O)O)[C@@H](O)[C@H]1O [ATP]

Kd (YdiU^475 [1]): ~0.14 µM
Compound: O=c1ccn([C@@H]2O[C@H](COP(=O)(O)NP(=O)(O)OP(=O)(O)O)[C@@H](O)[C@H]2O)c(=O)[nH]1 [UMPNPP]

Tm1 (YdiU^475 [3]; 1 mM UTP): 40.6 °C
Compound: O=c1ccn([C@@H]2O[C@H](COP(=O)(O)OP(=O)(O)OP(=O)(O)O)[C@@H](O)[C@H]2O)c(=O)[nH]1 [UTP]

Further lines, the molecule ahead of its results:

Compound: Nc1ncnc2c1ncn2[C@@H]1O[C@H](COP(=O)(O)OP(=O)(O)NP(=O)(O)O)[C@@H](O)[C@H]1O [AMPNPP]
Kd (YdiU^475 [1]): ~18 µM

Compound: Nc1ncnc2c1ncn2[C@@H]1O[C@H](COP(=O)(O)O)[C@@H](O)[C@H]1O [AMP]
X-ray crystal structure (YdiU^475 [2]; together with imidodiphosphate): 6III (YdiU-AMP-imidodiphosphonic acid)

Compound: O=P(O)(O)NP(=O)(O)O [imidodiphosphonic acid]
X-ray crystal structure (YdiU^475 [2]; together with AMP): 6III (YdiU-AMP-imidodiphosphonic acid)
